This assay has as its target TNKS1 (Homo sapiens, UniProt O95271). In words: TNKS1/PARP Biochemical Assay (TNKS1).
What is called IC50 is the concentration that gives 50% inhibition. Take `Cc1cccc2c(=O)[nH]c(-c3ccc(C(=O)N4CCOCC4)cc3)cc12` [IQ-107]: the IC50 was < 20 nM.
Take `Cc1cccc2c(=O)[nH]c(-c3ccc(S(=O)(=O)N(C)C)cc3)cc12` [IQ-108]: the IC50 was < 50 nM.
On to `Cc1cccc2c(=O)[nH]c(-c3ccc(S(=O)(=O)N(C)C4CCN(C)CC4)cc3)cc12` [IQ-109], for which the IC50 was < 20 nM.
To `CN1CCC(N(C)S(=O)(=O)c2ccc(-c3cc4c(Cl)cccc4c(=O)[nH]3)cc2)CC1` [IQ-110] belongs < 500 nM; to `Cc1cccc2c(=O)[nH]c(-c3ccc(S(=O)(=O)N(C)CC4CCN(C)CC4)cc3)cc12` [IQ-111], < 50 nM.
Next, `CN1CCC(CN(C)S(=O)(=O)c2ccc(-c3cc4c(Cl)cccc4c(=O)[nH]3)cc2)CC1` [IQ-112]: < 50 nM.
To `Cc1cccc2c(=O)[nH]c(-c3ccc(S(=O)(=O)N(C)CC4CCN(C(=O)OC(C)(C)C)CC4)cc3)cc12` [IQ-113] belongs < 500 nM; to `CN(CC1CCN(C(=O)OC(C)(C)C)CC1)S(=O)(=O)c1ccc(-c2cc3c(Cl)cccc3c(=O)[nH]2)cc1` [IQ-114], < 500 nM; to `Cc1cccc2c(=O)[nH]c(-c3ccc(S(=O)(=O)N(C)CC4CCNCC4)cc3)cc12` [IQ-115], < 20 nM.
As for `CN(CC1CCNCC1)S(=O)(=O)c1ccc(-c2cc3c(Cl)cccc3c(=O)[nH]2)cc1` [IQ-116], the IC50 is < 50 nM.
Take `Cc1cccc2c(=O)[nH]c(-c3ccc(S(=O)(=O)N(C)CCN(C)C)cc3)cc12` [IQ-117]: the IC50 is < 20 nM.
As for `Cc1cccc2c(=O)[nH]c(-c3ccc(S(=O)(=O)N(C)CC4CCOCC4)cc3)cc12` [IQ-118], the IC50 is < 20 nM.
For the molecule `Cc1cccc2c(=O)[nH]c(-c3ccc(S(=O)(=O)N(C4CC4)C4CCN(C)CC4)cc3)cc12` [IQ-119], the IC50 is < 500 nM.
In the case of `Cc1cccc2c(=O)[nH]c(-c3ccc(S(=O)(=O)N(C)CCO)cc3)cc12` [IQ-120], the IC50 was < 20 nM.
Next, `CN1CCN(S(=O)(=O)c2ccc(-c3cc4c(Cl)cccc4c(=O)[nH]3)cc2)CC1` [IQ-122]: < 500 nM.
For the molecule `Cc1cccc2c(=O)[nH]c(-c3ccc(S(=O)(=O)N4CCNCC4)cc3)cc12` [IQ-123], the IC50 was < 20 nM.
On to `Cc1cccc2c(=O)[nH]c(-c3ccc(S(=O)(=O)N4CCC(N(C)C)CC4)cc3)cc12` [IQ-125], for which the IC50 was < 20 nM.
In the case of `CN(C)C1CCN(S(=O)(=O)c2ccc(-c3cc4c(Cl)cccc4c(=O)[nH]3)cc2)CC1` [IQ-126], the IC50 was < 500 nM.
Turning to `Cc1cccc2c(=O)[nH]c(-c3ccc(OCCN4CCCC4)cc3)cc12` [IQ-134], the IC50 is < 50 nM.
On to `CC(C)(C)OC(=O)N1CCN(c2ccc(-c3cc4c(Cl)cccc4c(=O)[nH]3)cn2)CC1` [IQ-136], for which the IC50 was < 500 nM.
To `CN1CCN(Cc2ccc(-c3cc4c(F)cc(F)cc4c(=O)[nH]3)cc2)CC1` [IQ-138] belongs < 50 nM; to `Cc1cccc2c(=O)[nH]c(-c3ccc(S(=O)(=O)N4CCN(C(=O)OC(C)(C)C)CC4)cc3)cc12` [IQ-140], < 500 nM; to `Cc1cccc2c(=O)[nH]c(-c3ccc(CN4CCN(C(=O)OC(C)(C)C)CC4C)cc3)cc12` (stereo not shown) [IQ-142], < 500 nM.
Take `Cc1cccc2c(=O)[nH]c(-c3ccc(CN4CCN(C(=O)OC(C)(C)C)C(C)C4)cc3)cc12` (stereo not shown) [IQ-143]: the IC50 was < 500 nM.
`CN(CC1CCN(C(=O)OC(C)(C)C)CC1)C(=O)c1ccc(-c2cc3c(Cl)cccc3c(=O)[nH]2)cc1` [IQ-145]: the half-inhibitory concentration (IC50) was < 500 nM.
To `Cc1ccc(S(=O)(=O)N2CCN(C(C)(C)c3ccc(-c4cc5c(C)cccc5c(=O)[nH]4)cc3)CC2)cc1` [IQ-148] belongs < 500 nM; to `CC(C)(C)OC(=O)N1CCN(Cc2ccc(-c3cc4c(F)cc(F)cc4c(=O)[nH]3)cc2)CC1` [IQ-154], < 500 nM.
To `O=c1[nH]c(-c2ccc(CN3CCNCC3)cc2)cc2c(F)cc(F)cc12` [IQ-158] belongs < 50 nM; to `Cc1cccc2c(=O)[nH]c(-c3ccc(CN4CCN(CC5CC5)CC4)nc3)cc12` [IQ-161], < 500 nM.
For the molecule `Cc1cccc2c(=O)[nH]c(-c3ccc(CN4CCN(C(=O)C5CC5)CC4)nc3)cc12` [IQ-162], the half-maximal inhibitory concentration (IC50) was < 20 nM.
To `Cc1cccc2c(=O)[nH]c(-c3ccc(CN4CCNC(=O)C4)cc3F)cc12` [IQ-166] belongs < 500 nM; to `Cc1cccc2c(=O)[nH]c(-c3ccc(CN4CC(O)C4)cc3)cc12` [IQ-167], < 20 nM.
For `Cc1cccc2c(=O)[nH]c(-c3ccc(Cn4ccnc4C)cc3)cc12` [IQ-168], the IC50 was < 20 nM.
To `Cc1cccc2c(=O)[nH]c(-c3ccc(CN4CC(O)C4)c(F)c3)cc12` [IQ-169] belongs < 50 nM.
Turning to `Cc1cc(F)cc2c(=O)[nH]c(-c3ccc(CN4CC(O)C4)cc3)cc12` [IQ-170, 7-Fluoro-3-[4-(3-hydroxy-azetidin-1-ylmethyl)-phenyl]-5-methyl-2H-isoquinolin-1-one], the concentration for half-maximal inhibition (IC50) is < 20 nM.
Take `Cc1cccc2c(=O)[nH]c(-c3ccc(Cn4cncn4)cc3)cc12` [IQ-171]: the IC50 was < 50 nM.
As to `Cc1cccc2c(=O)[nH]c(-c3ccc(CN4CC(C)(O)C4)cc3)cc12` [IQ-172], the IC50 was < 20 nM.
`Cc1cccc2c(=O)[nH]c(-c3ccc(CN4CCC(N(C)C)C4)cc3)cc12` (stereo not shown) [IQ-173]: the IC50 is < 50 nM.
Regarding `Cc1cccc2c(=O)[nH]c(-c3ccc(CC(=O)N4CCN(C)CC4)cc3)cc12` [IQ-175], the IC50 is < 20 nM.
`Cc1cccc2c(=O)[nH]c(-c3ccc(CC(=O)N(C)C4CCN(C)CC4)cc3)cc12` [IQ-176]: the IC50 is < 20 nM.
Take `CNC1CN(Cc2ccc(-c3cc4c(C)cccc4c(=O)[nH]3)cc2)C1` [IQ-177]: the IC50 was < 20 nM.
Take `CNC1CN(Cc2ccc(-c3cc4c(C)cc(F)cc4c(=O)[nH]3)cc2)C1` [IQ-178]: the IC50 is < 20 nM.
Next, `Cc1cccc2c(=O)[nH]c(-c3ccc(Cn4c(C)nc5ccccc54)cc3)cc12` [IQ-179]: < 500 nM.
Take `Cc1cccc2c(=O)[nH]c(-c3ccc(Cn4ccnc4)cc3)cc12` [IQ-180]: the IC50 is < 20 nM.
`Cc1cccc2c(=O)[nH]c(-c3ccc(Cn4cnc5ccccc54)cc3)cc12` [IQ-181]: the IC50 was < 500 nM.
For `Cc1cccc2c(=O)[nH]c(-c3ccc(Cn4cccn4)cc3)cc12` [IQ-182], the IC50 is < 20 nM.
For `Cc1cccc2c(=O)[nH]c(-c3ccc(Cn4cccc4)cc3)cc12` [IQ-184], the IC50 was < 500 nM.
With `Cc1cc(F)cc2c(=O)[nH]c(-c3ccc(C(C)(C)N4CC(O)C4)cc3)cc12` [IQ-185], the IC50 was < 50 nM.
Turning to `Cc1cc(F)cc2c(=O)[nH]c(-c3ccc(C(=O)N(C)C4CCNC4)cc3)cc12` (stereo not shown) [IQ-186], the IC50 was < 500 nM.
Turning to `COCCN(CCOC)C(=O)c1ccc(-c2cc3c(C)cccc3c(=O)[nH]2)cc1` [IQ-187], the IC50 is < 50 nM.
`Cc1cccc2c(=O)[nH]c(-c3ccc(C(=O)N4CC(O)C4)cc3)cc12` [IQ-188]: the 50% inhibitory concentration (IC50) was < 20 nM.
`Cc1ccc(F)c2c(=O)[nH]c(-c3ccc(C(=O)N4CCN(C)CC4)cc3)cc12` [IQ-189]: the IC50 was < 20 nM.
Consider `Cc1cc(F)cc2c(=O)[nH]c(-c3ccc(C(=O)N4CCN(CCO)CC4)cc3)cc12` [IQ-192], for which the IC50 was < 20 nM.
With `Cc1ccc(F)c2c(=O)[nH]c(-c3ccc(C(=O)N4CCN(CCO)CC4)cc3)cc12` [IQ-193], the IC50 is < 20 nM.
Consider `Cc1cccc2c(=O)[nH]c(-c3cc(F)c(C(=O)N4CC(O)C4)c(F)c3)cc12` [IQ-194], for which the IC50 was < 20 nM.
With `Cc1cc(F)cc2c(=O)[nH]c(-c3ccc(C(=O)N(C)C4CCN(C)CC4)cc3)cc12` [IQ-195], the IC50 was < 20 nM.
To `Cc1cccc2c(=O)[nH]c(-c3ccc(C(=O)N(C)C4CCN(C)C4)cc3)cc12` (stereo not shown) [IQ-196] belongs < 20 nM; to `Cc1cc(F)cc2c(=O)[nH]c(-c3ccc(C(=O)N(C)C4CCN(C)C4)cc3)cc12` (stereo not shown) [IQ-197], < 20 nM.
As to `Cc1cccc2c(=O)[nH]c(-c3ccc(C(=O)N(C)Cc4nccn4C)cc3)cc12` [IQ-198], the IC50 is < 20 nM.
Next, `Cc1cccc2c(=O)[nH]c(-c3ccc(C(=O)N(C)C4CN(C)C4)cc3)cc12` [IQ-199]: < 20 nM; `Cc1cccc2c(=O)[nH]c(-c3ccc(C(=O)N(C)C4CCNC4)cc3)cc12` (stereo not shown) [IQ-200]: < 20 nM.
In the case of `Cc1cc(F)cc2c(=O)[nH]c(-c3ccc(C(=O)N(C)C4CN(C)C4)cc3)cc12` [IQ-201], the IC50 was < 50 nM.
Take `Cc1cccc2c(=O)[nH]c(-c3ccc(C(=O)N4CC(N(C)C)C4)cc3)cc12` [IQ-202]: the IC50 was < 500 nM.
Next, `Cc1cc(F)cc2c(=O)[nH]c(-c3ccc(C(=O)N4CC(N(C)C)C4)cc3)cc12` [IQ-203]: < 50 nM; `Cc1cccc2c(=O)[nH]c(-c3ccc(C(=O)N(C)CC4CCN(C)C4)cc3)cc12` (stereo not shown) [IQ-204]: < 20 nM.
Next, `Cc1cccc2c(=O)[nH]c(-c3ccc(C(=O)N(C)C4CCN(C(C)C)CC4)cc3)cc12` [IQ-206]: < 50 nM.
With `Cc1cc(F)cc2c(=O)[nH]c(-c3ccc(C(=O)N(C)CC4CCN(C)CC4)cc3)cc12` [IQ-208], the IC50 is < 20 nM.
Next, `Cc1cccc2c(=O)[nH]c(-c3ccc(C(=O)N(C)CC4(C)CCN(C)C4)cc3)cc12` (stereo not shown) [IQ-209]: < 20 nM.
Take `Cc1cc(F)cc2c(=O)[nH]c(-c3ccc(C(=O)N(C)CC4(C)CCN(C)C4)cc3)cc12` (stereo not shown) [IQ-210]: the IC50 was < 20 nM.
Next, `Cc1cccc2c(=O)[nH]c(-c3ccc(C(=O)N(C)C4CCCN(C)C4)cc3)cc12` (stereo not shown) [IQ-211]: < 20 nM.
Turning to `Cc1cc(F)cc2c(=O)[nH]c(-c3ccc(C(=O)N(C)C4CCCN(C)C4)cc3)cc12` (stereo not shown) [IQ-212], the IC50 is < 50 nM.
On to `Cc1cc(F)cc2c(=O)[nH]c(-c3ccc(C(=O)N(C)C4CCNCC4)cc3)cc12` [IQ-213], for which the IC50 is < 20 nM.
Regarding `Cc1cccc2c(=O)[nH]c(-c3ccc(CC(=O)N4CC(O)C4)cc3)cc12` [IQ-214], the IC50 is < 20 nM.
As to `Cc1cc(F)cc2c(=O)[nH]c(-c3ccc(CC(=O)N4CC(O)C4)cc3)cc12` [IQ-215], the IC50 is < 20 nM.
Next, `Cc1cc(F)cc2c(=O)[nH]c(-c3ccc(C(C)(C)C(=O)N4CC(O)C4)cc3)cc12` [IQ-218]: < 50 nM; `Cc1cccc2c(=O)[nH]c(-c3ccc(NC(CO)CO)nc3)cc12` [IQ-219]: < 20 nM.

For the origin of these results see patent US9193689B2, “3-aryl-5-substituted-isoquinolin-1-one compounds and their therapeutic use” (INSTITUTE OF CANCER RESEARCH: ROYAL CANCER HOSPITAL (THE), priority 2012, dated 2015).
